How the values were obtained:
Type in all cases: binding
HLA A*6802 = HLA A*6802 (Homo sapiens, UniProt P04439, A269V/D140Y/D185E/E176V/E277Q/E87N/F33Y/G231S/I121R/I166T/I218V/L180W/L300P/L318F/N151K/P208A/P217A/Q86R/R138H/R169H/S129P/T345S/V36M)
H-2 D^d = H-2 D^d (Mus musculus, UniProt P01900)
HLA A*3201 = HLA A*3201 (Homo sapiens, UniProt P04439, A270S/D101S/D185E/E176V/E277Q/F133L/G103R/G107R/G231S/H175R/I121M/I218V/I322F/K168Q/L105A/L300P/L318F/M331R/P208A/P217A/Q94H/R106L/R138Q/S129P/T104I/T323A/T345S/V100E/V321M/V358M); test: biochemical
H-2 D^b = H-2 D^b (Mus musculus, UniProt P01899)
H-2 D^b, sequence (P01887 21-119): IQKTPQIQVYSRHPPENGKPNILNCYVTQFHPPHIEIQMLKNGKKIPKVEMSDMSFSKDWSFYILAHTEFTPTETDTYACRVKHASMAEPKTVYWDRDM
H-2 D^b, sequence (P01899 25-362): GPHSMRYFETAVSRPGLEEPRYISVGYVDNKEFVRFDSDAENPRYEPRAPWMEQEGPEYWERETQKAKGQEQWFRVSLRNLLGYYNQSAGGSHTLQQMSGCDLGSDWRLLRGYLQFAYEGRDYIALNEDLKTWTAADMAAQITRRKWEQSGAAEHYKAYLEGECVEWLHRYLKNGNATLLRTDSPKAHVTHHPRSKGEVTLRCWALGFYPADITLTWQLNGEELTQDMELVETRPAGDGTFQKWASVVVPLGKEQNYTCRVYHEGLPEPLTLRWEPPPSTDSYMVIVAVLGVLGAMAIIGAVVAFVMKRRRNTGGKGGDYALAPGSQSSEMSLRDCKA

HLA B*1501 = HLA B*1501 (Homo sapiens, UniProt P01889, A329T/A93T/A95T/C349S/D201E/D98Y/E187L/E204Q/E69M/E70A/K202T/N87E/Q94N/R155S/R180W/S121R/S35A/S48A/V306I/V36M/Y140S/Y91S); test: biochemical
HLA B*5301 = HLA B*5301 (Homo sapiens, UniProt P01889, A329T/A93T/A95T/C349S/D201E/D98Y/E176V/E187L/E204Q/E69T/G107R/I218V/K202T/L105A/L119I/N104I/Q94N/R106L/R155S/R180L/S101N/S121R/S35A/S48A/T118I/V127L/V306I/V36M/Y140S/Y91F)
HLA B*5101 = HLA B*5101 (Homo sapiens, UniProt P01889, A329T/A93T/A95T/C349S/D138N/D201E/D98Y/E187L/E204Q/E69T/G107R/I218V/K202T/L105A/L119W/N104I/Q94N/R106L/R155S/R180L/S101N/S121T/S35A/S48A/V306I/V36M/Y195H/Y91F)
HLA B*0801 = HLA B*0801 (Homo sapiens, UniProt P01889, A93T/A95T/D138N/E176V/E187T/K202T/Q94N/R180D/S35A/V36M/Y33D/Y91F); test: biochemical
HLA B*3501 = HLA B*3501 (Homo sapiens, UniProt P01889, A329T/A93T/A95T/C349S/D201E/D98Y/E176V/E187L/E204Q/E69T/I218V/K202T/L119I/Q94N/R155S/R180L/S121R/S35A/S48A/T118I/V127L/V306I/V36M/Y140S/Y91F)
HLA B*1503 = HLA B*1503 (Homo sapiens, UniProt P01889, A329T/A93T/A95T/C349S/D201E/D98Y/E187L/E204Q/K202T/N87E/Q94N/R155S/R180L/S121R/S35A/V306I/V36M/Y140S/Y91S); test: biochemical
H-2 K^k = H-2 K^k (Mus musculus, UniProt P04223)
H-2 K^k, sequence (P01887 21-119): as the sequence (P01887 21-119) above
H-2 K^k, sequence (P04223 22-369): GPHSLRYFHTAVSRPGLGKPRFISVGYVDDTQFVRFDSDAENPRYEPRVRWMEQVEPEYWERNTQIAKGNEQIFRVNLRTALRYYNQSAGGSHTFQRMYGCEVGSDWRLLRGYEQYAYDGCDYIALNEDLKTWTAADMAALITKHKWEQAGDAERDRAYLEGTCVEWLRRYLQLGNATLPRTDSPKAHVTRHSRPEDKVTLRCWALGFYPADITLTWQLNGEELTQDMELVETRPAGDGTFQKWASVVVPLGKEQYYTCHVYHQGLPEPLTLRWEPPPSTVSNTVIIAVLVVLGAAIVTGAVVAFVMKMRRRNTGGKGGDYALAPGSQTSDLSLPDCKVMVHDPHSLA

HLA B*5802 = HLA B*5802 (Homo sapiens, UniProt P01889, A329T/C349S/D201E/D98Y/E176V/E187L/E204Q/E69T/G107R/I218V/I90N/K202T/L105A/N104I/N87E/Q89R/Q94S/R106L/R155S/R180L/R86G/S101N/S121W/S35A/S48A/V127L/V306I/V36M/Y140S/Y91M)
HLA B*5801 = HLA B*5801 (Homo sapiens, UniProt P01889, A329T/C349S/D201E/D98Y/E176V/E187L/E204Q/E69T/G107R/I218V/I90N/K202T/L105A/L119I/N104I/N87E/Q89R/Q94S/R106L/R155S/R180L/R86G/S101N/S121R/S35A/S48A/T118I/V127L/V306I/V36M/Y140S/Y91M)
H-2 K^d = H-2 K^d (Mus musculus, UniProt P01902)
H-2 K^d, sequence (P01887 21-119): as the sequence (P01887 21-119) above
H-2 K^d, sequence (P01902 22-368): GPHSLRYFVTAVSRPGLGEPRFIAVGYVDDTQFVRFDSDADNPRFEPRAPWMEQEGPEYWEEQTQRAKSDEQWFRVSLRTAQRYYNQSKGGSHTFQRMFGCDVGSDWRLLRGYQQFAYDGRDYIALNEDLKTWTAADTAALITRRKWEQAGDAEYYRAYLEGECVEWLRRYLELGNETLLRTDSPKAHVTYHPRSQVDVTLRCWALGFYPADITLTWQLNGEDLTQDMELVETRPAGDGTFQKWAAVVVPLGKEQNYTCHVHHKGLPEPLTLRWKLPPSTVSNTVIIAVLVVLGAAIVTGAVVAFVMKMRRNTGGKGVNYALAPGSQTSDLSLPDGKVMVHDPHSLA

HLA A*3001 = HLA A*3001 (Homo sapiens, UniProt P04439, D140H/D185E/E176W/F33S/G80R/H175R/K168Q/R138E/R41S); test: biochemical
HLA B*5401 = HLA B*5401 (Homo sapiens, UniProt P01889, A329T/C349S/D138N/D201E/E176V/E187T/E204Q/E69G/I76V/K202T/L119W/R155S/R180L/S121T/S35A/S48A/V127L/V306I/V36M/Y140L)

H-2 D^d, sequence (P01900 whole entry, looked up): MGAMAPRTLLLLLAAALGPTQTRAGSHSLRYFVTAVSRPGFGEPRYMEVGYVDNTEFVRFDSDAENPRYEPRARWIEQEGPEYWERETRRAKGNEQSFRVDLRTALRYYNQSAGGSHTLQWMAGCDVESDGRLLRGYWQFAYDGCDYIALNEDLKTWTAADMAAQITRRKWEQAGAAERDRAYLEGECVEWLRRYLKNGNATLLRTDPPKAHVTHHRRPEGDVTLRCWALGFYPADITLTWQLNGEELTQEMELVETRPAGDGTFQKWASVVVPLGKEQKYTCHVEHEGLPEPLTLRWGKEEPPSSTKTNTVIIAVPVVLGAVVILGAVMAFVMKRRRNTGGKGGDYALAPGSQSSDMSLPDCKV

Sequence | Normalized average relative binding affinity(ARB) (HLA A*6802) | Normalized average relative binding affinity(ARB) (H-2 D^d) | Normalized average relative binding affinity(ARB) (HLA A*3201) | Normalized average relative binding affinity(ARB) (H-2 D^b) | Normalized average relative binding affinity(ARB) (HLA B*1501) | Normalized average relative binding affinity(ARB) (HLA B*5301) | Normalized average relative binding affinity(ARB) (HLA B*5101) | Normalized average relative binding affinity(ARB) (HLA B*0801) | Normalized average relative binding affinity(ARB) (HLA B*3501) | Normalized average relative binding affinity(ARB) (HLA B*1503) | Normalized average relative binding affinity(ARB) (H-2 K^k) | Normalized average relative binding affinity(ARB) (HLA B*5802) | Normalized average relative binding affinity(ARB) (HLA B*5801) | Normalized average relative binding affinity(ARB) (H-2 K^d) | Normalized average relative binding affinity(ARB) (HLA A*3001) | Normalized average relative binding affinity(ARB) (HLA B*5401)
XXXXXXLXX [3064.0130] | 0.56 | 0.036 | 0.86 | 0.26 | 1.0 | 0.32 | 0.65 | 0.60 | 0.21 | 0.24 | 0.10 | 0.014 | 1.0 | 0.10 | 0.21 | 0.13
XXXXXXHXX [3064.0127] | 0.49 | 0.075 | 0.33 | 0.062 | 0.33 | 0.070 | 0.27 | 1.0 | 0.15 | 0.18 | 0.26 | 0.089 | 0.18 | 0.33 | 0.082 | 0.27
XXXXXXRXX [3064.0135] | 0.11 | 0.013 | 0.10 | 0.15 | 0.22 | 0.25 | 0.57 | 0.50 | 0.16 | 0.21 | 0.21 | 0.21 | 0.075 | 0.11 | 0.085 | 0.13
XXXXXXYXX [3064.0140] | 0.62 | 0.076 | 0.55 | 1.0 | 0.28 | 0.12 | 1.0 | 0.27 | 0.32 | 0.17 | 0.092 | 0.069 | 0.94 | 0.11 | 0.20 | 0.32
XXXQXXXXX [3064.0074] | 0.18 | 0.49 | 0.32 | 0.61 | 0.96 | 0.26 | 0.57 | 0.90 | 0.088 | 0.83 | 0.63 | 0.31 | 0.46 | 0.42 | 0.65 | 0.093
XXXXXTXXX [3064.0117] | 0.84 | 1.0 | 0.77 | 0.55 | 0.55 | 0.30 | 0.32 | 0.068 | 0.16 | 0.79 | 0.70 | 0.17 | 0.72 | 0.26 | 0.27 | 0.32
XXXPXXXXX [3064.0073] | 0.37 | 0.15 | 0.095 | 0.15 | 0.22 | 0.023 | 0.55 | 0.34 | 0.11 | 0.67 | 0.41 | 0.50 | 1.0 | 0.48 | 0.59 | 0.13
XXXXXXXMX [3064.0151] | 0.16 | 0.47 | 0.52 | 0.17 | 0.061 | 0.33 | 0.32 | 0.24 | 0.28 | 0.14 | 0.49 | 0.32 | 0.18 | 0.43 | 0.14 | 0.045

Reference: article PMC2248166, “Quantitative peptide binding motifs for 19 human and mouse MHC class I molecules derived using positional scanning combinatorial peptide libraries” (Immunome Research, 2008)
